Results reported in patent publication US10221167B2, “Hydroxyalkylamine- and hydroxycycloalkylamine-substituted diamine-arylsulfonamide compounds with selective activity in voltage-gated sodium channels” (Merck Sharp & Dohme Corp., priority 2015, dated 2019).

Assays:
[1] = target: T1, human Nav1.7 channels stably expressed in HEK 293 cells (Homo sapiens, UniProt Q15858); assay: IonWorks Quattro automated patch-clamp, state-dependent inhibition of Nav1.7; type: cell-based; conditions: inactivated state block, double-pulse protocol, holding -100 mV, read-out: potency for the Nav 1.7 sodium ion channel (as measured by IonWorks)
T1 construct: expressed in transfected cells
Protocol: (§1) Compounds were tested on human Nav1.7 and Nav1.5 channels stably expressed in HEK 293 cells. […] Cells were sealed on a planar substrate using the Population Patch Plate (PPC) technology. Electrical access was obtained using both nystatin and amphotericin. A double-pulse protocol was used for the determination of IC50 values for inactivated state block. Nav1.7 and Nav1.5 expressing cells were voltage clamped at −100 mV and −110 mV, respectively. A depolarizing prepulse to −10 mV (Nav1.7) or −30 mV (Nav1.5) for 1000 ms followed by a 10 ms repolarization to −100 mV (Nav1.7) or −110 mV (Nav1.5) was given to generate fractional channel inactivation of ˜50%, followed by a 10 ms test pulse to −10 mV (Nav1.7) or −30 mV (Nav1.5) to measure peak current in control conditions and after compound addition. The following recording solutions were used (mM). External: 150 NaCl, 2 CaCl2, 5 KCl, 1 Mg Cl2, 10 HEPES, 12 Dextrose; internal: 120 CsF, 30 CsCl, 10 EGTA, 5 HEPES, 5 NaF, 2 MgCl2.
(§2) For all electrophysiology experiments, offline analysis was used to determine percent inhibition as a function of drug concentration. IC50 values were determined by fitting to the Hill equation.
(§3) The various compounds in Examples 1 through 4 and Tables 1 through 3 exemplified above were assayed for activity and selectivity using the foregoing IonWorks® technique. The results are reported in the following paragraph in a format expressing the identification of the compound with reference Example and compound (e.g. Ex 1-1 is Example 1, compound 1) followed by the observed potency in nM and the ratio of Nav1.7 potency:Nav 1.5 potency as described here. […]

[2] = target: T2, human Nav1.5 channels stably expressed in HEK 293 cells (Homo sapiens, UniProt Q14524); assay: IonWorks Quattro automated patch-clamp, Nav1.5 (selectivity ratio versus Nav1.7); type: cell-based; conditions: selectivity for Nav1.7 over Nav1.5, inactivated state block
T2 construct: expressed in transfected cells
Protocol: as §1, §2, §3

T1 sequence (Q15858 whole entry): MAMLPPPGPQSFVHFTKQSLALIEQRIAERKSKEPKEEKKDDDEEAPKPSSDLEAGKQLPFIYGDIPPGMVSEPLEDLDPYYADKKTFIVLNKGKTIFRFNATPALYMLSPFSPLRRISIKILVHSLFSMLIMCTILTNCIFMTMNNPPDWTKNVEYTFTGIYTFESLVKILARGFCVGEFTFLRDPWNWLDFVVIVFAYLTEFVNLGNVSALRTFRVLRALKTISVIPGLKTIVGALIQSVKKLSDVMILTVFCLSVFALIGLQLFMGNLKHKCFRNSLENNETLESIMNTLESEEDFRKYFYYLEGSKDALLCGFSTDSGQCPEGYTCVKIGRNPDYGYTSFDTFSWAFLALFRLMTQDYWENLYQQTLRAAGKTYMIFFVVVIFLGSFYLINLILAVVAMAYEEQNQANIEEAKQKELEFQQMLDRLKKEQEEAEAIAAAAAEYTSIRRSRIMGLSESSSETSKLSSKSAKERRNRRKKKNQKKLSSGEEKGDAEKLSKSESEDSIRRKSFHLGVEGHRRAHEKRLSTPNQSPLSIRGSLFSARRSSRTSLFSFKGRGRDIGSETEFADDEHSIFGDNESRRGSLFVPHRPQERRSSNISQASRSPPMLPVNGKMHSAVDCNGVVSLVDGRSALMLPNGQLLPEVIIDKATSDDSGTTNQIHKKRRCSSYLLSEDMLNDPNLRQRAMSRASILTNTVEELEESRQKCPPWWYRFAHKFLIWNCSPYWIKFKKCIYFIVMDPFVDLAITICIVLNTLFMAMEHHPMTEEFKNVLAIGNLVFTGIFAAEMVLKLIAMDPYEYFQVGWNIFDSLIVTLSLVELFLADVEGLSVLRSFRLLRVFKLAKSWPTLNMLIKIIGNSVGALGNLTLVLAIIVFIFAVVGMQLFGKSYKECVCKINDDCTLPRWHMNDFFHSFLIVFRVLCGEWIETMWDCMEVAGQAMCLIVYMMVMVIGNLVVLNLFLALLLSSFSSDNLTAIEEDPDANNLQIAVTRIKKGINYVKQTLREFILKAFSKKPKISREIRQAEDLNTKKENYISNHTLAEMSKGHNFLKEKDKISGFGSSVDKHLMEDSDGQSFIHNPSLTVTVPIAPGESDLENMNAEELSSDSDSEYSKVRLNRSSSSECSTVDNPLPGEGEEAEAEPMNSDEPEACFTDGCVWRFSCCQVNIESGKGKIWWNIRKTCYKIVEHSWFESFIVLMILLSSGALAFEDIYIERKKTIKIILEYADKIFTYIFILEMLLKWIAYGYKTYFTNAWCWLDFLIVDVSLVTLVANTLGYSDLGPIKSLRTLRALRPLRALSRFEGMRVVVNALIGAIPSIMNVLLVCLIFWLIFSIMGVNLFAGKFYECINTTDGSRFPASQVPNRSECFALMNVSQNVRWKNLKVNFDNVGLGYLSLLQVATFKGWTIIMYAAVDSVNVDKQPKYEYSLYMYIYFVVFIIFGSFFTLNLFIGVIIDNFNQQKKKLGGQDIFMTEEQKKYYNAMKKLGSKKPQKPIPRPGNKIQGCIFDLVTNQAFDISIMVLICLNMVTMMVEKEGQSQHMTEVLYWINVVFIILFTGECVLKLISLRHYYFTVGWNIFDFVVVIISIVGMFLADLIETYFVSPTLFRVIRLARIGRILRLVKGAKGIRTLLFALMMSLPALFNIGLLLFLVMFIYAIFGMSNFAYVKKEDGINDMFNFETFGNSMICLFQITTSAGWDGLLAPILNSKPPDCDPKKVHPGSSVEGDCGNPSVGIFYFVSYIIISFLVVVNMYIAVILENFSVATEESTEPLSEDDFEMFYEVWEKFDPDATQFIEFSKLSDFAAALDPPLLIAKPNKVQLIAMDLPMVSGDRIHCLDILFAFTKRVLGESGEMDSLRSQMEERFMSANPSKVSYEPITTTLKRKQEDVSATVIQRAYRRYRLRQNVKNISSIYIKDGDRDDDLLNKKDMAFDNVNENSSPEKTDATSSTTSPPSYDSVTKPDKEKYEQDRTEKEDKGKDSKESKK
T2 sequence (Q14524 whole entry): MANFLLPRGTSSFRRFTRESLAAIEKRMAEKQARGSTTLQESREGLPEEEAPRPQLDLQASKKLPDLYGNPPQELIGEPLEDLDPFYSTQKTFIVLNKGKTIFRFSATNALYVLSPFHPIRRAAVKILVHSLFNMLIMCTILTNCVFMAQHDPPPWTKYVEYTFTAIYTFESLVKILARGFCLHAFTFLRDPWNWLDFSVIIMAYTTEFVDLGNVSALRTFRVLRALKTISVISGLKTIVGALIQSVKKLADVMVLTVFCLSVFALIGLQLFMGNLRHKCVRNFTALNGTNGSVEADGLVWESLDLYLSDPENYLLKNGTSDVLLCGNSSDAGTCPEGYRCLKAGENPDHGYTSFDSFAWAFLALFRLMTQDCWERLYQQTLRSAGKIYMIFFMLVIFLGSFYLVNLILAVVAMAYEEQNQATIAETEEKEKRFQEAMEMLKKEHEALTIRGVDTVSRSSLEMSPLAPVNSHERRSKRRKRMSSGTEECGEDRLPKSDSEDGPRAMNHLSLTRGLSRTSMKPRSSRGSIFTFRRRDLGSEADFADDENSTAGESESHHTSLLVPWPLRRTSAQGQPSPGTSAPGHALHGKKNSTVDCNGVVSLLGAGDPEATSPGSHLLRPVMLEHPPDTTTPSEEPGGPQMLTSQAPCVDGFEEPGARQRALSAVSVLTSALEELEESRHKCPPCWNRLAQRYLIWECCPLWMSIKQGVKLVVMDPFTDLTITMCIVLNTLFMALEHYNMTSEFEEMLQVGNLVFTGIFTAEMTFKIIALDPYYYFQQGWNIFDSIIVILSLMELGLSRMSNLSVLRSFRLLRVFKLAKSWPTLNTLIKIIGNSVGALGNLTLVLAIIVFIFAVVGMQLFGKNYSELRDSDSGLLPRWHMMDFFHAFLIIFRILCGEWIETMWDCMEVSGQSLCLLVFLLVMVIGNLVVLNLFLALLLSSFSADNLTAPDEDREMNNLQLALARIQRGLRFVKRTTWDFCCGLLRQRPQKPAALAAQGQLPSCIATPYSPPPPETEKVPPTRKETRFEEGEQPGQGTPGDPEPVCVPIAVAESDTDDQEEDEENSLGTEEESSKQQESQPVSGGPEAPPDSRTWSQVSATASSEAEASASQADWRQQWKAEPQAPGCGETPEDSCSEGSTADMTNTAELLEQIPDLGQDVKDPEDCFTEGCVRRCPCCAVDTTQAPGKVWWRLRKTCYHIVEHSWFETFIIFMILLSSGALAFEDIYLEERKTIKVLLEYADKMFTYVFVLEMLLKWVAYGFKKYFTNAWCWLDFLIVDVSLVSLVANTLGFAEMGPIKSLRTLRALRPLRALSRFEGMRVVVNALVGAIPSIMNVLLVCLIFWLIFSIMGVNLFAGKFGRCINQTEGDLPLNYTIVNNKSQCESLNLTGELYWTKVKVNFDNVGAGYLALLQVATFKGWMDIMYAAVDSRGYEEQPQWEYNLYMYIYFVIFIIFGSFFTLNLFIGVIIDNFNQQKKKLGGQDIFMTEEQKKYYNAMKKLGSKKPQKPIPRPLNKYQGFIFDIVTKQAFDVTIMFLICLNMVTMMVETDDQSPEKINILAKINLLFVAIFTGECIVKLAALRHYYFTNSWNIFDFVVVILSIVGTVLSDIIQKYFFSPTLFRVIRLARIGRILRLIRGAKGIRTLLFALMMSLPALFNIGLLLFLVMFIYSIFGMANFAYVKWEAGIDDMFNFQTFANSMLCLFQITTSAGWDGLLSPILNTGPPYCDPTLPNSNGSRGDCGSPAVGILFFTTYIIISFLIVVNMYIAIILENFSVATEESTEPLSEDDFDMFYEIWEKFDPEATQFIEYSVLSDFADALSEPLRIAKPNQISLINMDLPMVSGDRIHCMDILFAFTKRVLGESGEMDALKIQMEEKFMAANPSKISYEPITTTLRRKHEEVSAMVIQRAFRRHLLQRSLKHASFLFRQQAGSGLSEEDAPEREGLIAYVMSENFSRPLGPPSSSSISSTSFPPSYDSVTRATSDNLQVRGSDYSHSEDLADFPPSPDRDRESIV

| SMILES | IC50 [1] | ratio of Nav1.7 potency:Nav 1.5 potency [2] |
| --- | --- | --- |
| O=S(=O)(Nc1ncns1)c1cc(Cl)c(NCCCCNCCNCCO)cc1F [EX 2-4, 5-chloro-2-fluoro-4-{[4-({2-[(2-hydroxyethyl)amino]ethyl}amino)butyl]amino}-N-1,2,4-thiadiazol-5-ylbenzenesulfonamide] | 0.035 µM | ≥ 943 |
| O=S(=O)(Nc1ncc(F)s1)c1cc(Cl)c(NCCCCN[C@H]2CNC[C@@H]2O)cc1F [EX 2-16, 5-chloro-2-fluoro-N-(5-fluoro-1,3-thiazol-2-yl)-4-[(4-{[(3S,4S)-4-hydroxypyrrolidin-3-yl]amino}butyl)amino] benzenesulfonamide] | 0.032 µM | ≥ 1031 |
| O=S(=O)(Nc1ncc(F)s1)c1cc(Cl)c(NCCCCNC[C@@H]2C[C@H](O)CN2)cc1F [EX 2-21, 5-chloro-2-fluoro-N-(5-fluoro-1,3-thiazol-2-yl)-4-{[4-({[(2S,4S)-4-hydroxypyrrolidin-2-yl]methyl}amino)butyl]amino} benzenesulfonamide] | 0.032 µM | ≥ 344 |
| O=S(=O)(Nc1ncc(F)s1)c1cc(Cl)c(NCCCCNC[C@@H]2C[C@@H](O)CN2)cc1F [EX 2-22, 5-chloro-2-fluoro-N-(5-fluoro-1,3-thiazol-2-yl)-4-{[4-({[(2S,4R)-4-hydroxypyrrolidin-2-yl]methyl}amino)butyl]amino} benzenesulfonamide] | 0.035 µM | ≥ 942 |
| NC[C@H](CO)NCCCCNc1cc(F)c(S(=O)(=O)Nc2nccs2)cc1Cl [EX 2-39, 4-[(4-{[(1R)-2-amino-1-(hydroxymethyl)ethyl)amino}butyl)amino]-5-chloro-2-fluoro-N-1,3-thiazol-2-ylbenzenesulfonamide] | 0.06 µM | ≥ 550 |
| CC1(O)CN[C@H](CNCCCCNc2cc(F)c(S(=O)(=O)Nc3nccs3)cc2Cl)C1 (stereo partly drawn) [EX 3-1, 5-chloro-2-fluoro-4-((4-((((2S)-4-hydroxy-4-methylpyrrolidin-2-yl)methyl)amino)butyl)amino)-N-(thiazol-2-yl)benzenesulfonamide] | 0.1 µM | ≥ 330 |

Now those with a lower IC50 [1], led by results:

| IC50 [1] | SMILES | ratio of Nav1.7 potency:Nav 1.5 potency [2] |
| --- | --- | --- |
| 0.029 µM | O=S(=O)(Nc1ncc(F)s1)c1cc(Cl)c(NCCCCNCCNCCO)cc1F [EX 2-9, 5-chloro-2-fluoro-N-(5-fluoro-1,3-thiazol-2-yl)-4-{[4-({2-[(2-hydroxyethyl)amino]ethyl}amino)butyl]amino} benzenesulfonamide] | ≥ 1138 |
| 0.029 µM | NC[C@H](CO)NCCCCNc1cc(F)c(S(=O)(=O)Nc2ncns2)cc1Cl [EX 2-41] | ≥ 655 |
| 0.027 µM | NC[C@@H](CO)NCCCCNc1cc(F)c(S(=O)(=O)Nc2ncns2)cc1Cl [EX 2-37, 4-[(4-{[(1S)-2-amino-1-(hydroxymethyl)ethyl]amino}butyl)amino]-5-chloro-2-fluoro-N-1,2,4-thiadiazol-5-ylbenzenesulfonamide] | ≥ 1222 |
| 0.025 µM | O=S(=O)(Nc1ncns1)c1cc(Br)c(NCCCCN[C@@H]2CNC[C@H]2O)cc1F [EX 2-44, 5-bromo-2-fluoro-4-((4-(((3R,4R)-4-hydroxypyrrolidin-3-yl)amino)butyl)amino)-N-(1,2,4-thiadiazol-5-yl)benzenesulfonamide] | ≥ 1300 |
| 0.024 µM | NC[C@@H](CO)NCCCCNc1cc(F)c(S(=O)(=O)Nc2ncc(F)s2)cc1Cl [EX 2-36, 4-[(4-{[(1S)-2-amino-1-(hydroxymethyl)ethyl]amino}butyl)amino]-5-chloro-2-fluoro-N-(5-fiuoro-1,3-thiazol-2-yl)benzenesutfonamide] | ≥ 1375 |
| 0.014 µM | O=S(=O)(Nc1ncc(F)s1)c1cc(Cl)c(NCCCCNCC2(O)CNC2)cc1F [EX 2-6, 5-chloro-2-fluoro-N-(5-fluoro-1,3-thiazol-2-yl)-4-[(4-{[(3-hydroxyazetidin-3-yl)methyl]amino}butyl)amino] benzenesulfonamide] | ≥ 2357 |
